This passage reports CAR value and IC50 results from patent EP4332093A1, “SALT CONTAINING PIPERAZINE POLYCYCLIC DERIVATIVE, CRYSTAL FORM THEREOF, PREPARATION METHOD THEREFOR, AND USE THEREOF” (Shanghai Hansoh Biomedical Co., Ltd., priority 2021, dated 2022).

One assay has as its system rats. As to the kind of experiment: Pharmacodynamic model of active escape experiment in rats. Format: in vivo. As to conditions: F344 rats, oral, Dose 1 mg/kg, one hour before the test; Vehicle 91-98%. As to the method: To evaluate the anti-schizophrenic effect of the compounds using the pharmacodynamic model of the active escape experiment in rats.
A certain mass (such as 1.0 g) of CMC-Na was weighed into a glass bottle. A certain volume (such as 200 mL) of purified water was added. The resulting mixture was stirred to disperse evenly. 1% (v/v) Tween 80 was added according to the solution volume, and the resulting mixture was stirred overnight to obtain a homogeneous clear solution, which was stored at 2 to 8°C for later use.
A prescription amount of the compound was weighed, followed by the addition of a prescription volume of 0.5% CMC-Na+1% Tween 80 solution. […]
The actual sample amount needs to be calculated during the formulation and administration of the compound solution. […]
The current intensity was 0.6 mA and the duration was 10 seconds. […] This would be recorded as escape failures, and the single training ended; • 5.1.5 Each animal was trained 30 times a day for a total of 6 days, and returned to the cage after the training. • 5.2 Baseline test and grouping […]
The following data was collected by the software for data analysis: • Number of avoids of the animal; • Number of escape failures of the animal; • Escape latency of the animal; • All measurement data were expressed as mean ± standard error (Mean ± SEM), and analyzed by Graphpad 6 statistical software. […]

In another assay the target is T1, dopamine D3 receptor (Homo sapiens, UniProt P35462).
T1 construct: purchased PerkinElmer ES-173-M400UA
T1 sequence (P35462 whole entry): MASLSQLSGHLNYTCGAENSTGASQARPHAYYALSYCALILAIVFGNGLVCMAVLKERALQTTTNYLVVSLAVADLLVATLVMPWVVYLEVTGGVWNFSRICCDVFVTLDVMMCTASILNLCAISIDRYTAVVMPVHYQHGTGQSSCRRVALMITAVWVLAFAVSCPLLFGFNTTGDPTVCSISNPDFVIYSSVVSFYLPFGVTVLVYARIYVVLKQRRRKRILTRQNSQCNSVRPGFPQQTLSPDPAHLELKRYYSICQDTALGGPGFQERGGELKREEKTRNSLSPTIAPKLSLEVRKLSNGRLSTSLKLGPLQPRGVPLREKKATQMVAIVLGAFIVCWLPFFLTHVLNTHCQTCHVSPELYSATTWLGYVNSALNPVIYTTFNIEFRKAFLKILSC
As to the kind of experiment: Radioligand binding assay, dopamine D3 receptor ([3H]-methylspiperone). Conditions: Human Dopamine D3 Receptor membrane, [3H]-methylspiperone 0.5 nM. The protocol:
Determination of the binding ability of the compounds of the present invention to dopamine D3 receptor
The objective of this test example is to determine the affinity of the compounds for dopamine D3 receptor.
Experimental buffer: 50 mM Tris-HCl pH 7.4, 10 mm MgCl2; washing liquor: 50 mM Tris-HCl pH 7.4, stored at 4°C; 0.5% PEI solution: 0.5 g PEI dissolved in 100 mL ddH2O, 4°C storage of spare.
(§1) 5 µL of the test compounds (0.005 nM to 100 nM, 10 concentrations in total) and 100 µL of buffer were added to a 96-well assay plate. 1 µL of cell membrane and 300 µL of buffer were added to each well, and the plate was shaken at 600 rpm for 5 minutes. 100 µL of a mixed solution of buffer and [^3H]-methylspiperone (final concentration of 0.5 nM) was added to the reaction system per well, and the plate was shaken at 600 rpm for 5 minutes and incubated at 27°C for 30 min. The UNIFII,TER-96 GF/B filter plate pre-incubated with 0.5% PEI for 1 h was washed twice with the buffer (1 mL/well). The cell membrane suspension was added to the […]-96 GF/B filter plate, washed 4 times, and incubated at 55°C for 10 min. 40 µL of ULTIMA GOLD was added to each well, and liquid scintillation counting was carried out.
(§2) The CPM (Counts per minute) values were determined by TopCount. […] The 10 concentrations of the compound were from 100 nM to 0.005 nM after 3-fold dilution of the reaction system. The percent inhibition rate and ten-point concentration data were fitted to the parametric nonlinear logistic equation by using GraphPad prism to calculate the IC50 values of the compound.

The next assay concerns the target 5-HT2A receptor (Homo sapiens, UniProt P28223). As to the kind of experiment: Radioligand binding assay, 5-HT2A receptor ([3H]-Ketanserin). As to conditions: Human 5-HT2A Receptor membrane, [3H]-Ketanserin 2 nM; read-out: 5HT-2A Binding IC50. Set-up: purchased PerkinElmer. The protocol: Determination of the binding ability of the compounds of the
present invention to 5-HT2A receptor
The objective of this test example is to determine the affinity of the compounds for 5-HT2A receptor.
Experimental buffer: 50 mM Tris-HCl pH 7.4, 4 mM CaCl2; washing liquor: 50 mM Tris-HCl pH 7.4, stored at 4°C; 0.5% PEI solution: 0.5 g PEI dissolved in 100 mL ddH2O, 4°C storage of spare.
as §1, with “plate. 1.5” for “plate. 1”, “and [^3H]-Ketanserin” for “and [^3H]-methylspiperone”, “of 2” for “of 0.5”, “The […]-96” for “The UNIFII,TER-96”
as §2

Chain of 5-HT2A receptor (P28223 whole entry): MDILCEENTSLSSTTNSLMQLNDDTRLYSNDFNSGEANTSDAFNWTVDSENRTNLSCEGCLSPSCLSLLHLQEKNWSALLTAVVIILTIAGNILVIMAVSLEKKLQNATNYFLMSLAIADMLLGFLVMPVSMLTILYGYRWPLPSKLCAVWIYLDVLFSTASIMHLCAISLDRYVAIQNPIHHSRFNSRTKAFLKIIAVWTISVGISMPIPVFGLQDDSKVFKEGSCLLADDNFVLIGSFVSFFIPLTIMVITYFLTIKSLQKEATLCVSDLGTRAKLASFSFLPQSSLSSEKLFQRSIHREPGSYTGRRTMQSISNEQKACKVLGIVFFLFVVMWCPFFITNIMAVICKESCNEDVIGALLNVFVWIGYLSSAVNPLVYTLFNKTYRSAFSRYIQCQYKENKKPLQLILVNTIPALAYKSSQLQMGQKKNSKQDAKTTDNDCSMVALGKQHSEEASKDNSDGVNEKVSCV

Turning to `O=C(NC1CC(CCN2CCN(c3cccc(Cl)c3Cl)CC2)C1)c1ncco1` (stereo not drawn) [Example 12, N-(3-(2-(4-(2,3-Dichlorophenyl)piperazin-1-yl)ethyl)cyclobutyl)oxazole-2-carboxamide], the CAR value with rats is recorded as 30%.
With `O=C(N[C@H]1C[C@@H](CCN2CCN(c3cccc(Cl)c3Cl)CC2)C1)c1ncco1` [Example 12B, N-(Cis-3-(2-(4-(2,3-dichlorophenyl)piperazin-1-yl)ethyl)cyclobutyl)oxazole-2-carbo xamide], the results for the IC50 at dopamine D3 receptor and on 5-HT2A receptor were 2.54 nM and 8.73 nM, respectively.
For the molecule `O=C(N[C@H]1C[C@H](CCN2CCN(c3cccc(Cl)c3Cl)CC2)C1)c1ncco1` [Example 12A, N-(Trans-3-(2-(4-(2,3-dichlorophenyl)piperazin-1-yl)ethyl)cyclobutyl)oxazole-2-car boxamide], the figures for the IC50 on dopamine D3 receptor and at 5-HT2A receptor were 0.37 nM and 4.19 nM, respectively. Besides, in the assay on rats, the CAR value stood at 18.5%.
As to `O=C(N[C@H]1C[C@H](CCN2CCN(c3cccc(Cl)c3Cl)CC2)C1)C1(O)CC1` [Example 6A, N-(Trans-3-(2-(4-(2,3-dichlorophenyl)piperazin-1-yl)ethyl)cyclobutyl)-1-hydroxycy clopropane-1-carboxamide], the results for the IC50 at dopamine D3 receptor and at 5-HT2A receptor were 0.75 nM and 5.77 nM, respectively.
With `O=C(N[C@H]1C[C@H](CCN2CCN(c3cccc(Cl)c3Cl)CC2)C1)c1cccc2ncccc12` [Example 19A, N-(Trans-3-(2-(4-(2,3-dichlorophenyl)piperazin-1-yl)ethyl)cyclobutyl)quinoline-5-c arboxamide], the IC50 on dopamine D3 receptor was 0.4 nM; on 5-HT2A receptor it was 1.89 nM.
On the same counts, the results for `O=C(N[C@H]1C[C@H](CCN2CCN(c3cccc(Cl)c3Cl)CC2)C1)c1nccs1` [Example 7A, N-(Trans-3-(2-(4-(2,3-dichlorophenyl)piperazin-1-yl)ethyl)cyclobutyl)thiazole-2-car boxamide] are 0.44 nM and 0.79 nM.

One may read the IC50 as the concentration at which inhibition is half-maximal.
